Measurements: patent US20180353483A1, “PHARMACEUTICAL COMPOSITIONS AND METHODS FOR INDOLEAMINE, 2, 3-DIOXYGENASE INHIBITION AND INDICATIONS THEREFOR” (Incyte Corporation, priority 2015, published 2018)
“And” between values parts separate entries of the source, which are not always exact repeats. Equal values may be shown once.

Experiment: Pharmacokinetics of Compound 1 in combination with MK-3475 in subjects with various cancers
Assay type: in vivo, human
Description: The subjects were not limited to a specific cancers and study include subjects with various cancers. […] One treatment cycle consisted of 21 days. […] Additional subjects were enrolled in a cohort to achieve the minimum of 3 evaluable subjects if dropouts or dose interruptions or reductions occur that result in a subject being non-evaluable for DLTs. […] An additional safety cohort was opened at 100 mg BID in parallel to 300 mg BID being tested. This may also be limited to subjects with melanoma, NSCLC, or specific cancer types from among those included in Phase 1. The RP2D was selected from the evaluated safety expansions.
If a dose was missed by more than 4 hours, that dose was skipped and was resumed at the scheduled time.
Pharmacokinetic samples were obtained at the visits of Cycle 1 Day 1, Cycle 1 Day 8 and Cycle 2 Day 1. […] The exact date and time of the PK blood draws were recorded in the eCRF along with the date and time of the last dose of study drug and details of the last meal preceding the blood draw.
The planned PK time points were used for preliminary PK analyses.

[1] = Cohort 1, 25 mg, first dose, geometric mean
[2] = Cohort 1, 25 mg, first dose, mean ± SD
[3] = Cohort 6, 300 mg BID, steady state C1D8, mean ± SD
[4] = Diagnosis DLBCL, steady state C1D8, individual values of 2 subjects
[5] = Diagnosis RCC, first dose, individual values of 2 subjects

Structure (SMILES): NS(=O)(=O)NCCNc1nonc1C(=NO)Nc1ccc(F)c(Br)c1 [Compound 1, 4-({2-[(aminosulfonyl)amino]ethyl}amino)-N-(3-bromo-4-fluorophenyl)-N′-hydroxy-1,2,5-oxadiazole-3-carboximidamide]
- tmax (All diagnoses, first dose, median): 2.00 h
- CL/F (All diagnoses, steady state C1D8, mean ± SD): 28.7 ± 10.3 L/h
- tmax (All diagnoses, steady state C1D8, median): 2.00 h
- CL/F (Cohort 1, 25 mg BID, steady state C1D8, mean ± SD): 46.2 ± 8.91 L/h
- tmax (Cohort 1, 25 mg BID, steady state C1D8, median): 1.00 h
- AUC(0-t) [1]: (0.650) μM * h
- Cmax [1]: 199 nM
- AUC(0-t) [2]: 0.711 ± 0.349 µM·h
- Cmax [2]: 231 ± 151 nM
- tmax (Cohort 1, 25 mg, first dose, median): 2.00 h
- CL/F (Cohort 2, 50 mg BID, steady state C1D8, mean ± SD): 52.6 ± 22.4 L/h
- tmax (Cohort 2, 50 mg BID, steady state C1D8, median): 2.00 h
- Cmax (Cohort 2, 50 mg, first dose, geometric mean): 543 nM
- tmax (Cohort 2, 50 mg, first dose, median): 2.00 h
- Cmax (Cohort 3, 100 mg BID, steady state C1D8, geometric mean): 814 nM
- CL/F (Cohort 3, 100 mg BID, steady state C1D8, mean ± SD): 67.4 ± 34.9 L/h
- tmax (Cohort 3, 100 mg BID, steady state C1D8, median): 2.00 h
- CL/F (Cohort 4 (MEL), 50 mg BID, steady state C1D8, mean ± SD): 78.3 ± 28.9 L/h
- tmax (Cohort 4 (MEL), 50 mg, first dose, median): 1.00 h
- Cmax (Cohort 5, 100 mg BID, steady state C1D8, geometric mean): 803 nM
- CL/F (Cohort 5, 100 mg BID, steady state C1D8, mean ± SD): 69.6 ± 28.4 L/h
- tmax (Cohort 5, 100 mg BID, steady state C1D8, median): 2.00 h
- Cmax (Cohort 6, 300 mg BID, steady state C1D8, geometric mean): 2500 nM
- CL/F [3]: 64.8 ± 23.2 L/h
- Cmax [3]: 2710 ± 1220 nM
- tmax (Cohort 6, 300 mg BID, steady state C1D8, median): 2.00 h
- tmax (Cohort 6, 300 mg, first dose, median): 2.00 h
- Cmax (Cohort 7, 300 mg BID, steady state C1D8, geometric mean): 2520 nM
- CL/F (Cohort 7, 300 mg BID, steady state C1D8, mean ± SD): 65 ± 23.4 L/h
- tmax (Cohort 7, 300 mg BID, steady state C1D8, median): 2.00 h
- tmax (Cohort 7, 300 mg, first dose, median): 2.00 h
- AUC(0-t) (Diagnosis DLBCL, first dose, mean ± SD): 2.29 ± 1.16 µM·h
- AUC0-12 h [4]: 3.99 µM·h
- CL/F [4]: 21.4 L/h and 28.6 L/h
- Cmax [4]: 904 nM
- tmax [4]: 4.0, 4.0 h
- tmax (Diagnosis GU, first dose, median): 2.00 h
- CL/F (Diagnosis GU, steady state C1D8, mean ± SD): 28.1 ± 10.0 L/h
- tmax (Diagnosis GU, steady state C1D8, median): 2.00 h
- Cmax (Diagnosis MEL, first dose, geometric mean): 809 nM
- tmax (Diagnosis MEL, first dose, median): 2.00 h
- CL/F (Diagnosis MEL, steady state C1D8, mean ± SD): 33.0 ± 10.0 L/h
- tmax (Diagnosis MEL, steady state C1D8, median): 2.00 h
- Cmax (Diagnosis NSCLC PD-L1 High, steady state C1D8, geometric mean): 815 nM
- CL/F (Diagnosis NSCLC PD-L1 High, steady state C1D8, mean ± SD): 29.2 ± 10.4 L/h
- Cmax (Diagnosis NSCLC PD-L1 Low/NE, first dose, mean ± SD): 914 ± 343 nM
- tmax (Diagnosis NSCLC PD-L1 Low/NE, first dose, median): 1.00 h
- CL/F (Diagnosis NSCLC PD-L1 Low/NE, steady state C1D8, mean ± SD): 26.9 ± 4.57 L/h
- tmax (Diagnosis NSCLC PD-L1 Low/NE, steady state C1D8, median): 2.00 h
- tmax (Diagnosis OC, first dose, median): 2.00 h
- CL/F (Diagnosis OC, steady state C1D8, mean ± SD): 27.9 ± 8.82 L/h
- tmax (Diagnosis OC, steady state C1D8, median): 2.00 h
- AUC(0-t) [5]: 3.58 µM·h and 1.74 µM·h
- Cmax [5]: 1350 nM and 418 nM
- tmax [5]: 2.0 h
- AUC(0-t) (Diagnosis SCCHN, first dose, mean ± SD): 2.32 ± 1.10 µM·h
- tmax (Diagnosis SCCHN, first dose, median): 2.00 h
- CL/F (Diagnosis SCCHN, steady state C1D8, mean ± SD): 33.3 ± 15.5 L/h
- tmax (Diagnosis SCCHN, steady state C1D8, median): 2.00 h
- tmax (Diagnosis TNBC, first dose, median): 2.00 h
- CL/F (Diagnosis TNBC, steady state C1D8, mean ± SD): 25.7 ± 8.22 L/h
